Assay [1] relates to Staphylococcus aureus. Briefly: Antibacterial activity against Staphylococcus aureus NBRC 12732 assessed as reduction in bacterial growth by CLSI based broth microdilution method. In kind it is functional. A general note: Dilution methods test growth across graded concentrations, often in twofold steps.
For assay [2], the system named is Escherichia coli. Put plainly: Antibacterial activity against Escherichia coli ATCC 25922 assessed as reduction in bacterial growth incubated for 24 hrs by micro-dilution method. The class given is functional.
The test system of assay [3] is Staphylococcus aureus. Briefly: Antibacterial activity against methicillin-sensitive Staphylococcus aureus assessed as reduction microbial growth. In kind it is functional.
For assay [4], the system named is Staphylococcus aureus. Put plainly: Antibacterial activity against Staphylococcus aureus ATCC 700699 assessed as reduction in bacterial growth inhibition incubated for 24 hrs by microbroth-dilution method. In kind it is functional.
Assay [5] concerns Staphylococcus aureus. Put plainly: Antimicrobial activity against community acquired methicillin-resistant Staphylococcus aureus SH1000. In kind it is functional.
Assay [6] has as its system Staphylococcus aureus. Put plainly: Antibiofilm activity against methicillin-resistant Staphylococcus aureus SH1000 assessed as reduction in bacterial growth. In kind it is functional.
Assay [7] has as its system Pseudomonas aeruginosa. Put plainly: Antibacterial activity against Pseudomonas aeruginosa assessed as inhibition of bacterial cell growth. The class given is functional.
Assay [8] has as its system Staphylococcus aureus. Briefly: Antibacterial activity against methicillin-resistant Staphylococcus aureus assessed as bacterial growth inhibition. The class given is functional.
For assay [9], the system named is Escherichia coli. Put plainly: Antibacterial activity against Escherichia coli assessed as reduction bacterial cell growth. The class given is functional.
A further assay deals with Acinetobacter baumannii. Briefly: Antibacterial activity against Acinetobacter baumannii assessed as inhibition of bacterial cell growth. In kind it is functional.
For a further assay, the system named is Klebsiella pneumoniae. Put plainly: Antibacterial activity against Klebsiella pneumoniae assessed as reduction in bacterial growth. In kind it is functional.
Assay [10] concerns Pseudomonas aeruginosa. Briefly: Antibacterial activity against Pseudomonas aeruginosa assessed as bacterial growth inhibition incubated for 72 hrs by microdilution method. The class given is functional.
Assay [11] deals with Escherichia coli. Briefly: Antibacterial activity against Escherichia coli assessed as bacterial growth inhibition incubated for 72 hrs by microdilution method. The class given is functional.
The test system of assay [12] is Staphylococcus aureus. Briefly: Antibacterial activity against Staphylococcus aureus assessed as bacterial growth inhibition incubated for 72 hrs by microdilution assay. In kind it is functional, organism-based. Particulars: for MIC: Staphylococcus aureus, time 72 hrs.
The subject of assay [13] is Staphylococcus aureus. Briefly: Antibacterial activity against methicillin-resistant Staphylococcus aureus assessed as log reduction in bacterial load measured after 60 mins. In kind it is functional. Particulars: 1 h.
The test system of assay [14] is Escherichia coli. Put plainly: Antibiofilm activity against Escherichia coli assessed as reduction in bacterial growth by crystal violet based staining assay. The class given is functional.
For assay [15], the system named is Staphylococcus aureus. Briefly: Antibiofilm activity against Staphylococcus aureus assessed as reduction in bacterial growth by crystal violet based staining assay. In kind it is functional.
Assay [16] relates to Pseudomonas aeruginosa. Put plainly: Antibiofilm activity against Pseudomonas aeruginosa assessed as reduction in bacterial growth by crystal violet based staining assay. In kind it is functional.
For assay [17], the system named is Enterococcus faecalis. Briefly: Antibiofilm activity against Enterococcus faecalis assessed as reduction in bacterial growth by crystal violet based staining assay. The class given is functional.
The subject of assay [18] is Staphylococcus aureus. Put plainly: Antimicrobial activity against Staphylococcus aureus assessed as reduction in bacterial growth. In kind it is functional.
Assay [19] deals with Enterococcus faecalis. Put plainly: Antibacterial activity against Enterococcus faecalis assessed as reduction in bacterial cell growth. The class given is functional.
The test system of assay [20] is Stenotrophomonas maltophilia. Briefly: Antibacterial activity against Stenotrophomonas maltophilia assessed as inhibition of bacterial growth. The class given is functional.
The subject of assay [21] is Staphylococcus epidermidis. Briefly: Antibacterial activity against Staphylococcus epidermidis ATCC 12228 assessed as bacterial growth inhibition incubated for 24 hrs by microdilution method. In kind it is functional.
The subject of another assay is Bacillus cereus. Put plainly: Antibacterial activity against Bacillus cereus assessed as reduction in microbial growth after 18 hrs by MTT based broth dilution method. In kind it is functional.
Assay [22] has as its system Staphylococcus aureus. Put plainly: Antibacterial activity against Staphylococcus aureus ATCC 25923 assessed as bacterial growth inhibition incubated for 24 hrs by microdilution method. In kind it is functional.
In assay [23] the test system is Pseudomonas aeruginosa. Briefly: Antibacterial activity against Pseudomonas aeruginosa ATCC 9027 assessed as reduction in bacterial growth incubated for 24 hrs by micro-dilution method. In kind it is functional.
For assay [24], the system named is Staphylococcus aureus. Put plainly: Antibacterial activity against Staphylococcus aureus ATCC 25923 assessed as reduction in bacterial growth incubated for 24 hrs by micro-dilution method. The class given is functional.
The next assay concerns Vibrio parahaemolyticus. Put plainly: Antibacterial activity against Vibrio parahaemolyticus ATCC 17802 assessed as reduction in bacterial growth incubated for 24 hrs by micro-dilution method. In kind it is functional.
Assay [25] has as its system Pseudomonas aeruginosa. Briefly: Antibacterial activity against Pseudomonas aeruginosa NCTC 6749 assessed as reduction in bacterial growth incubated for 24 hrs by micro-dilution method. In kind it is functional.
In assay [26] the test system is Staphylococcus aureus. Put plainly: Antibacterial activity against Staphylococcus aureus ATCC 4163 assessed as reduction in bacterial growth incubated for 24 hrs by micro-dilution method. The class given is functional.
Assay [27] concerns Enterococcus faecalis. Put plainly: Antibacterial activity against Enterococcus faecalis assessed as bacterial growth inhibition incubated for 72 hrs by microdilution method. The class given is functional.
In assay [28] the test system is Staphylococcus aureus. Put plainly: Antibacterial activity against methicillin- resistant Staphylococcus aureus assessed as bacterial growth inhibition incubated for 24 hrs. In kind it is functional.
The mark [29] stands for this setting: Pseudomonas aeruginosa, 72 h, read-out: MIC.
Where [30] appears, read: Escherichia coli, 72 h, read-out: MIC.

For `C[N+](CCO)(CCO)CCCCCCCCCCCCSc1nnc(-c2ccccc2)o1.[Br-]`, the MIC in the assay with Staphylococcus aureus [1] turned out to be 6.25 µg/mL.

Take `CC1(C)[C@@H]2CC[C@H](CC[N+](C)(C)CC[C@H]3CC[C@@H]4C[C@H]3C4(C)C)[C@H]1C2.[I-]`: in the assay with Escherichia coli [2], the MIC came out at 5 µg/mL.

`CCCCCCCCCCCC[N+](C)(C)CCC[N+](C)(C)CCC[N+](C)(C)CCCCCCCCCCCC`: the MIC with Staphylococcus aureus [3] was determined as 0.5 µM.

As to `CCCCCCCCCCCCCCCCCC[N+](C)(C)Cc1cnc(C)c(OC(C)=O)c1C.[Cl-]`, the MIC in the assay on Staphylococcus aureus [4] was 1 µg/mL.

Take `C=CC[N+](CCC[N+](C)(C)CCCCCCCCCC)(CCC[N+](C)(C)CCCCCCCCCC)CCC[N+](C)(C)CCCCCCCCCC.[Br-].[Br-].[Br-].[Br-]`: the MIC in the assay on Staphylococcus aureus [5] stood at 0.25 µM. Further, the MBEC with Staphylococcus aureus [6] was 25 µM.

Regarding `CCCCCCCCCCC[n+]1cccc(Oc2cccc(Oc3ccc[n+](CCCCCCCCCCC)c3)c2)c1.[Br-].[Br-]`, the MIC with Pseudomonas aeruginosa [7], in the assay with Staphylococcus aureus [8], with Escherichia coli [9], in the assay with Acinetobacter baumannii and with Klebsiella pneumoniae was < 0.25 µg/mL throughout.

For `CCCCCCCCCCCCCCCC[N+](C)(C)c1ccc(C(c2ccccc2)c2ccc([N+](C)(C)C)cc2)cc1.[I-].[I-]` (configuration not stated), the MIC in the assay on Staphylococcus aureus [8] is < 0.25 µg/mL.

For `CCCCCCCCCCCCOC(=O)C[N+](C)(C)CCC[N+](C)(C)CC(=O)OCCCCCCCCCCCC.[Cl-].[Cl-]`, the MIC with Pseudomonas aeruginosa [10] came to 40 µM; in the assay with Escherichia coli [11], 200 µM. In addition, the IC50 (as a rule, the concentration needed to halve the response being measured) in the assay with Staphylococcus aureus [12] is 120 µM.

Consider `CC1(C)C(=O)N(CCC[N+](C)(C)CC[N+](C)(C)C)C(=O)N1Cl.[Cl-].[Cl-]`, for which, in the assay with Staphylococcus aureus [13], the “log(activity)” value amounted to 2.36.

Regarding `CCCCCCCCCCCC[N+](C)(C)CC[N+](C)(C)CC[N+](C)(C)CCCCCCCCCCCC`, the MIC is 0.5 µM in the assay on Escherichia coli [14], < 0.25 µM in the assay with Staphylococcus aureus [15], 1 µM with Pseudomonas aeruginosa [16] and < 0.25 µM in the assay with Enterococcus faecalis [17].

For `CCCCCCCCCCCC[N+](C)(C)CCOc1ccc(OCC[N+](C)(C)CCCCCCCCCCCC)cc1.[Br-].[Br-]`, the MIC in the assay on Staphylococcus aureus [18] is 1 µg/mL; in the assay on Enterococcus faecalis [19], 1 µg/mL; in [20] it was 2 µg/mL.

Turning to `CCCCCCCCCCCCCCOC(=O)[C@H](Cc1ccccc1)[N+](C)(CC)CC`, the results for the MIC (in [21]; in the assay with Bacillus cereus; with Staphylococcus aureus [22]) were 4.5 µM, 5.4 µM and 3.6 µM, respectively.

Take `CC1(C)[C@@H]2CC[C@H](CC[N+](C)(C)CC[C@H]3CC[C@@H]4C[C@H]3C4(C)C)[C@H]1C2.[Cl-]`: the MIC in the assay with Pseudomonas aeruginosa [23], with Staphylococcus aureus [24] and with Escherichia coli [2] was 0.625 µg/mL each time.

Regarding `CCCCCCCCCCCC[N+](C)(C)CCNC(=O)C12CC3CC(C1)CC(C(=O)NCC[N+](C)(C)CCCCCCCCCCCC)(C3)C2`, the MIC in the assay on Vibrio parahaemolyticus was 0.1 µM; with Pseudomonas aeruginosa [25], 2.3 µM; with Staphylococcus aureus [26], 2.3 µM; in the assay with Escherichia coli [2], 9.4 µM.

In the case of `C[N+](C)(C)CC[N+](C)(C)C`, the MIC with Pseudomonas aeruginosa [10] (setting [29]), in the assay with Escherichia coli [11] (setting [30]), with Staphylococcus aureus [12] and in the assay with Enterococcus faecalis [27] was > 500 µM in each case.

Regarding `CCCCCCCCCCC[n+]1cccc(Oc2ccc(Oc3ccc[n+](CCCCCCCCCCC)c3)cc2)c1.[Br-].[Br-]`, in the assay with Staphylococcus aureus [8], the MIC was < 0.25 µg/mL.

In the case of `CCCCCCCCCC[N+](C)(C)CCOc1ccc(OCC[N+](C)(C)CCCCCCCCCC)cc1.[Br-].[Br-]`, the MIC with Staphylococcus aureus [18] was 0.5 µg/mL; with Enterococcus faecalis [19], 0.25 µg/mL; in [20], 0.5 µg/mL.

Turning to `CCCCCCCCCC[N+](C)(C)CCCCCCCCCC` [DIDECYLDIMETHYLAMMONIUM CHLORIDE], the MIC is 4 µM in the assay on Staphylococcus aureus [8] and 1 µM in the assay with Staphylococcus aureus [28].

Consider `C[N+](C)(C)CCCCC[N+](C)(C)C` [PENTAMETHONIUM BROMIDE], for which the MIC in the assay on Pseudomonas aeruginosa [10] (setting [29]), in the assay on Escherichia coli [11] (setting [30]), in the assay with Staphylococcus aureus [12] and with Enterococcus faecalis [27] was > 500 µM throughout.

These data come from ChEMBL document CHEMBL5331054, “Antibacterial quaternary ammonium agents: Chemical diversity and biological mechanism” (Eur J Med Chem, 2022).
